Four molecules from patent US6713607B2 (Wyeth, priority 1994, dated 2004) can be followed below.

Structures are written as SMILES.

Assay [1] has as its system mitogen-stimulated thymocyte proliferation. Description: LAF, mitogen-stimulated thymocyte proliferation assay. Type of assay: cell-based, murine.
For assay [2], the target named is 210 kDa Protein (Homo sapiens, UniProt P42345). Description: Modified isolation procedure: no exogenous FKBP, streptavidin-conjugated resin in place of glutathione resin. It counts as binding.
The target in assay [3] is T1, 210 kDa Protein (Homo sapiens, UniProt P42345+P62942).
T1 construct: These proteins are isolated from membrane preparations of Molt 4 T cell leukemia; endogenous in cells; host or cells: Molt 4 cells (CHAPSO-solubilized membrane fraction); The partner GST-FKBP12 was made in house in recombinant E. coli (pGEX-FKBP)
T1 sequence (P62942 whole entry, other chains not shown): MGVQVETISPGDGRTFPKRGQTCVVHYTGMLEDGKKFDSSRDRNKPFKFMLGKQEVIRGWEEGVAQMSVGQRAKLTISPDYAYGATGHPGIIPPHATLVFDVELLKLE
Description: Affinity isolation of the 210 kDa protein from Molt 4 membrane preparations with GST-FKBP12 complexed to rapamycin or analog (binding of analog-FKBP12 complexes). As to conditions: isolation procedure of Example 1, Molt 4 cells.
Description: Molt 4 cells (1×10^9) were grown in standard media (RPMI 1640 containing 100 U/ml pennicillin, 100 ug/ml L-glutamine, 10% FCS). The cells were harvested and rinsed 3× with PBS (50 mM phosphate buffer, pH 7.0, 150 mM NaCl), flash frozen in dry-ice ethanol bath and stored at −80° C. On ice, the cells were thawed and lysed using a dounce homogenizer with B pestle in 5 ml of buffer A (10 mM Hepes, pH 7.5, 20 mM KCl, 1 mM EDTA, 0.4 mM PMSF and 2 mM 2-ME). After the debris was cleared by centrifugation at 1600 g for 10 min. and the membrane fraction was concentrated by 100,000 g centrifugation (1 hour), the 100,000 g pellet was incubated in 3 ml buffer B (50 mM Tris, pH 7.2, 100 mM NaCl, 20 mM KCl, 0.2 mM PMSF, 1 mM 2-ME, 2 mM CaCl2, 2 mM MgCl2, 5 μg/ml aprotinin, leupeptin, pepstatin A and antipain), containing 12 mM CHAPSO for two hours at 4° C. The solubilized membrane proteins were separated from the debris by a 100,000 g centrifugation. […] The supernatant was then incubated for 2 hours at 4° C. with 100 ul glutathione resin (1:1 Buffer B). Nonspecific proteins were rinsed 5× with buffer C (buffer B+0.1% Triton×100) and the proteins eluted from the resin in Laemli buffer by incubation at 95° C. for 3 minutes and microcentrifugation. The proteins were separated by size using a 7% SDS-PAGE followed by silver stain.

For another assay, the target named is FKBP12 (Homo sapiens, UniProt P62942). Description: Inhibition of PPIase activity of FKBP12. Type of assay: biochemical. Particulars: read-out: PPlase(Ki).
Sequence of FKBP12 (P62942 whole entry, species assumed): as the sequence (P62942 whole entry, other chains not shown) above

As for `COC1CC2CCC(C)C(O)(O2)C(=O)C(=O)N2CCCCC2C(=O)OC(C(C)CC2CCC(OC(=O)CNC(=O)CCCCC3SCC4NC(=O)NC43)C(OC)C2)CC(=O)C(C)C=C(C)C(O)C(OC)C(=O)C(C)CC(C)C=CC=CC=C1C` (stereo not shown) [rapamycin-42-biotin glycinate ester], the “immunosuppressive activity in the LAF assay (in words)” value in assay [1] was “equivalent immunosuppressive activity”. Further, the “210 kDa protein isolated by modified procedure (in words)” value at 210 kDa Protein [2] was “Only background levels”. With `COC1CC2CCC(C)C(O)(O2)C(=O)C(=O)N2CCCCC2C(=O)OC(C(C)CC2CCC(O)C(OC)C2)CC(=O)C(C)/C=C(\C)C(O)CC(=O)C(C)CC(C)/C=C/C=C/C=C/1C` (stereo not shown) [demethoxyrapamycin], at 210 kDa Protein [3], the “210 kDa protein isolated with compound:GST-FKBP12 complex (in words)” value is reported as “same proteins were isolated”. Moreover, the IC50 (commonly the point on the concentration scale where inhibition reaches its midpoint) in assay [1] (mitogen-stimulated thymocyte proliferation, FK506: mechanism of action is different) was 58 nM. The Ki (in general, the equilibrium dissociation constant of an inhibitor or competing ligand from its target) at FKBP12 worked out at 4.4 nM.

`C=CC[C@@H]1/C=C(\C)C[C@H](C)C[C@H](OC)[C@H]2O[C@@](O)(C(=O)C(=O)N3CCCC[C@H]3C(=O)O[C@H](/C(C)=C/[C@@H]3CC[C@@H](O)[C@H](OC)C3)[C@H](C)[C@@H](O)CC1=O)[C@H](C)C[C@@H]2OC` [FK506]: the IC50 in assay [1] (Mus musculus, Thymocyte) came to 3 nM. On the same count and under the same terms, as for `CO[C@H]1C[C@@H]2CC[C@@H](C)[C@@](O)(O2)C(=O)C(=O)N2CCCC[C@H]2C(=O)O[C@H]([C@H](C)C[C@@H]2CC[C@@H](O)[C@H](OC)C2)CC(=O)[C@H](C)/C=C(\C)[C@@H](O)[C@@H](OC)C(=O)[C@H](C)C[C@H](C)/C=C/C=C/C=C/1C` [RAPA, Rapamycin], the figure is 6 nM.
